In article PMC5218480 (PLoS ONE, 2017):

Test system: MV-4-11 cells
Assay: Gene expression microarray analysis (Affymetrix PrimeView) and GSEA
Type: cell-based, human
Design: RFU PODN (11730768_x_at) / Fold change /veh PODN (11730768_x_at) / RFU LINC00158 (11744669_a_at) / Fold change /veh LINC00158 (11744669_a_at) / RFU DUSP10 (11751237_a_at) / Fold change /veh DUSP10 (11751237_a_at) / RFU ID3 (11757404_x_at) / Fold change /veh ID3 (11757404_x_at) / RFU PLEKHG5 (11737974_s_at) / Fold change /veh PLEKHG5 (11737974_s_at) / RFU LRRC4B (11730491_at) / Fold change /veh LRRC4B (11730491_at) / RFU GIMAP4 (11747438_a_at) / Fold change /veh GIMAP4 (11747438_a_at) / RFU KRT8 (11758183_x_at) / Fold change /veh KRT8 (11758183_x_at) / RFU CNN1 (11734310_a_at) / Fold change /veh CNN1 (11734310_a_at) / RFU VPS37D (11726825_at) / Fold change /veh VPS37D (11726825_at) / RFU C10orf10 (11716522_x_at) / Fold change /veh C10orf10 (11716522_x_at) / RFU KIR2DL2 /// KIR2DL4 /// KIR2DL5A /// KIR2DL5B /// KIR2DS1 /// KIR2DS2 /// KIR2DS3 /// KIR2DS4 /// KIR3DL3 /// KIR3DL3 /// KIR3DS1 (11738374_at) / Fold change /veh KIR2DL2 /// KIR2DL4 /// KIR2DL5A /// KIR2DL5B /// KIR2DS1 /// KIR2DS2 /// KIR2DS3 /// KIR2DS4 /// KIR3DL3 /// KIR3DL3 /// KIR3DS1 (11738374_at) / RFU C1QL1 (11718748_at) / Fold change /veh C1QL1 (11718748_at) / RFU TMPRSS4 (11747572_a_at) / Fold change /veh TMPRSS4 (11747572_a_at) / RFU HAMP (11756126_x_at) / Fold change /veh HAMP (11756126_x_at) / RFU RNFT2 (11725882_a_at) / Fold change /veh RNFT2 (11725882_a_at) / RFU NR4A2 (11747474_a_at) / Fold change /veh NR4A2 (11747474_a_at) / RFU ABCC12 (11746883_a_at) / Fold change /veh ABCC12 (11746883_a_at) / RFU TMEM136 (11760407_x_at) / Fold change /veh TMEM136 (11760407_x_at) / RFU CLDN22 /// WWC2 (11732394_at) / Fold change /veh CLDN22 /// WWC2 (11732394_at) / RFU HLA-DPB1 (11760878_x_at) / Fold change /veh HLA-DPB1 (11760878_x_at) / RFU SPINT1 (11716480_a_at) / Fold change /veh SPINT1 (11716480_a_at) / RFU GAP43 (11754022_s_at) / Fold change /veh GAP43 (11754022_s_at) / RFU A4GNT (11735810_at) / Fold change /veh A4GNT (11735810_at) / RFU PRB3 (11715151_x_at) / Fold change /veh PRB3 (11715151_x_at) / RFU TUBB4B (11761932_at) / Fold change /veh TUBB4B (11761932_at) / RFU CAPN14 (11732068_a_at) / Fold change /veh CAPN14 (11732068_a_at) / RFU TMCC2 (11721928_a_at) / Fold change /veh TMCC2 (11721928_a_at) / RFU IRGQ (11745062_a_at) / Fold change /veh IRGQ (11745062_a_at) / RFU FAM174B (11720279_a_at) / Fold change /veh FAM174B (11720279_a_at) / RFU TMPRSS4 (11748680_a_at) / Fold change /veh TMPRSS4 (11748680_a_at) / RFU FAM212B (11763350_a_at) / Fold change /veh FAM212B (11763350_a_at) / RFU PLEKHG5 (11743358_a_at) / Fold change /veh PLEKHG5 (11743358_a_at) / RFU ZSCAN30 (11745921_a_at) / Fold change /veh ZSCAN30 (11745921_a_at) / RFU CMKLR1 (11741424_a_at) / Fold change /veh CMKLR1 (11741424_a_at) / RFU LOC101060620 /// MAPK8IP1 (11723275_at) / Fold change /veh LOC101060620 /// MAPK8IP1 (11723275_at) / RFU SPTSSB (11747773_x_at) / Fold change /veh SPTSSB (11747773_x_at) / RFU PRSS12 (11739890_at) / Fold change /veh PRSS12 (11739890_at) / RFU BIN1 (11741810_x_at) / Fold change /veh BIN1 (11741810_x_at) / RFU WNT11 (11732464_a_at) / Fold change /veh WNT11 (11732464_a_at) / RFU C10orf10 (11716521_a_at) / Fold change /veh C10orf10 (11716521_a_at) / RFU C5orf56 (11738089_at) / Fold change /veh C5orf56 (11738089_at) / RFU CYB561 (11721691_x_at) / Fold change /veh CYB561 (11721691_x_at) / RFU ANKRD19P (11752326_a_at) / Fold change /veh ANKRD19P (11752326_a_at) / RFU OR2T12 /// OR2T33 /// OR2T8 (11738714_s_at) / Fold change /veh OR2T12 /// OR2T33 /// OR2T8 (11738714_s_at) / RFU VCAN (11748164_a_at) / Fold change /veh VCAN (11748164_a_at) / RFU JSRP1 (11732532_at) / Fold change /veh JSRP1 (11732532_at) / RFU KRTAP10-11 (11738290_x_at) / Fold change /veh KRTAP10-11 (11738290_x_at) / RFU MYO3A (11730013_a_at) / Fold change /veh MYO3A (11730013_a_at) / RFU EBF3 (11725865_a_at) / Fold change /veh EBF3 (11725865_a_at) / RFU CAMK2N1 (11719241_x_at) / Fold change /veh CAMK2N1 (11719241_x_at) / RFU C5orf56 (11738088_a_at) / Fold change /veh C5orf56 (11738088_a_at) / RFU OLFML3 (11715873_a_at) / Fold change /veh OLFML3 (11715873_a_at) / RFU LOC100653217 /// NTM (11731650_a_at) / Fold change /veh LOC100653217 /// NTM (11731650_a_at) / RFU MAPK11 (11762145_a_at) / Fold change /veh MAPK11 (11762145_a_at) / RFU FIZ1 (11724087_x_at) / Fold change /veh FIZ1 (11724087_x_at) / RFU OASL (11726364_x_at) / Fold change /veh OASL (11726364_x_at) / RFU SOX15 (11748057_x_at) / Fold change /veh SOX15 (11748057_x_at) / RFU CD79A (11719716_a_at) / Fold change /veh CD79A (11719716_a_at) / RFU HIST1H1D (11736915_at) / Fold change /veh HIST1H1D (11736915_at) / RFU CASKIN2 (11723855_a_at) / Fold change /veh CASKIN2 (11723855_a_at) / RFU LOC730098 (11760151_x_at) / Fold change /veh LOC730098 (11760151_x_at) / RFU OR4N2 (11742367_at) / Fold change /veh OR4N2 (11742367_at) / RFU PRRT2 (11749266_a_at) / Fold change /veh PRRT2 (11749266_a_at) / RFU SNX32 (11753110_a_at) / Fold change /veh SNX32 (11753110_a_at) / RFU CDHR5 (11726645_a_at) / Fold change /veh CDHR5 (11726645_a_at) / RFU RCAN1 (11760418_a_at) / Fold change /veh RCAN1 (11760418_a_at) / RFU FAM167A (11723789_a_at) / Fold change /veh FAM167A (11723789_a_at) / RFU FAM26E (11764081_at) / Fold change /veh FAM26E (11764081_at) / RFU ISYNA1 (11749810_s_at) / Fold change /veh ISYNA1 (11749810_s_at) / RFU ACY1 (11761880_at) / Fold change /veh ACY1 (11761880_at) / RFU 11764098_at / Fold change /veh 11764098_at / RFU SAMD14 (11745864_x_at) / Fold change /veh SAMD14 (11745864_x_at) / RFU NPB (11741838_a_at) / Fold change /veh NPB (11741838_a_at) / RFU TMPRSS6 (11731388_a_at) / Fold change /veh TMPRSS6 (11731388_a_at) / RFU KRTAP10-2 (11738614_at) / Fold change /veh KRTAP10-2 (11738614_at) / RFU ARHGAP8 /// PRR5-ARHGAP8 (11727945_x_at) / Fold change /veh ARHGAP8 /// PRR5-ARHGAP8 (11727945_x_at) / RFU KRTAP5-7 /// NADSYN1 (11734609_at) / Fold change /veh KRTAP5-7 /// NADSYN1 (11734609_at) / RFU RASL12 (11751679_a_at) / Fold change /veh RASL12 (11751679_a_at) / RFU CDKN2B (11736163_a_at) / Fold change /veh CDKN2B (11736163_a_at) / RFU PRF1 (11729649_at) / Fold change /veh PRF1 (11729649_at) / RFU, ZNF638 /// ZNF638-IT1 / Fold change vs veh, ZNF638 /// ZNF638-IT1 / RFU, PANK3 / Fold change vs veh, PANK3 / RFU, SH3YL1 / Fold change vs veh, SH3YL1 / RFU, ZEB2 / Fold change vs veh, ZEB2 / RFU, NRIP1 / Fold change vs veh, NRIP1 / RFU, PTTG1IP / Fold change vs veh, PTTG1IP / RFU, CAPN2 / Fold change vs veh, CAPN2 / RFU, MED14 / Fold change vs veh, MED14 / RFU, SNORA58 / Fold change vs veh, SNORA58 / RFU, C1orf63 / Fold change vs veh, C1orf63 / RFU, LRRFIP1 / Fold change vs veh, LRRFIP1 / RFU, NDUFAF7 / Fold change vs veh, NDUFAF7 / RFU, SLC12A2 / Fold change vs veh, SLC12A2 / RFU, IBTK / Fold change vs veh, IBTK / RFU, ESF1 / Fold change vs veh, ESF1 / Fold change vs veh, TMEM50B / RFU, TAOK1 / Fold change vs veh, TAOK1 / RFU, ACBD3 / Fold change vs veh, ACBD3 / RFU, TMA16 / Fold change vs veh, TMA16 / RFU, RWDD3 / Fold change vs veh, RWDD3 / RFU, BCAT1 / Fold change vs veh, BCAT1 / RFU, EDEM3 / Fold change vs veh, EDEM3 / RFU, TMEM33 / Fold change vs veh, TMEM33 / RFU, WDR75 / Fold change vs veh, WDR75 / RFU, AHCTF1 / Fold change vs veh, AHCTF1 / RFU, TFRC / Fold change vs veh, TFRC / RFU, ZDHHC17 / Fold change vs veh, ZDHHC17 / RFU, NOM1 / Fold change vs veh, NOM1 / RFU, ARL8B / Fold change vs veh, ARL8B / RFU, ZBTB11 / Fold change vs veh, ZBTB11 / RFU, TAMM41 / Fold change vs veh, TAMM41 / RFU, KIAA1704 /// LOC100996395 / Fold change vs veh, KIAA1704 /// LOC100996395 / RFU, ING1 / Fold change vs veh, ING1 / RFU, TRMT61B / Fold change vs veh, TRMT61B / RFU, FUBP3 / Fold change vs veh, FUBP3 / RFU, TP53 / Fold change vs veh, TP53 / RFU, TNKS2 / Fold change vs veh, TNKS2 / RFU, ZFP14 / Fold change vs veh, ZFP14 / RFU, ACTR2 / Fold change vs veh, ACTR2 / RFU, PPP3R1 / Fold change vs veh, PPP3R1 / RFU, PIK3R1 / Fold change vs veh, PIK3R1 / RFU, HNRNPA1 / Fold change vs veh, HNRNPA1 / RFU, RNF170 / Fold change vs veh, RNF170 / RFU, ZNF28 / Fold change vs veh, ZNF28 / RFU, RNGTT / Fold change vs veh, RNGTT / RFU, OGT / Fold change vs veh, OGT / RFU, BRD1 / Fold change vs veh, BRD1 / RFU, MARS / Fold change vs veh, MARS / RFU, ZNF655 / Fold change vs veh, ZNF655 / RFU, FAHD1 / Fold change vs veh, FAHD1 / RFU, BDP1 / Fold change vs veh, BDP1 / RFU, LRRCC1 / Fold change vs veh, LRRCC1 / RFU, ARID1A / Fold change vs veh, ARID1A / RFU, ZNF146 / Fold change vs veh, ZNF146 / RFU, ZNF330 / Fold change vs veh, ZNF330 / RFU, GPN3 / Fold change vs veh, GPN3 / RFU, C9orf123 / Fold change vs veh, C9orf123 / RFU, N4BP2L2 / Fold change vs veh, N4BP2L2 / RFU, ARFIP1 / Fold change vs veh, ARFIP1 / RFU, FAM179B / Fold change vs veh, FAM179B / RFU, BCL10 / Fold change vs veh, BCL10 / RFU, UHRF1BP1L / Fold change vs veh, UHRF1BP1L / RFU, BET1 / Fold change vs veh, BET1 / RFU, CNOT2 / Fold change vs veh, CNOT2 / RFU, ZNF268 / Fold change vs veh, ZNF268 / Fold change vs veh, ZNF507 / RFU, DGCR2 / Fold change vs veh, DGCR2 / RFU, WDSUB1 / Fold change vs veh, WDSUB1 / Fold change vs veh, HSP90B1 /// MIR3652 / RFU, ADSS / Fold change vs veh, ADSS / RFU, GK / Fold change vs veh, GK / RFU, ZNF148 / Fold change vs veh, ZNF148 / RFU, TAF9 / Fold change vs veh, TAF9 / RFU, SLC1A5 / Fold change vs veh, SLC1A5 / RFU, SLMO2 / Fold change vs veh, SLMO2 / RFU, ABCC4 / Fold change vs veh, ABCC4 / RFU, LOC101060439 /// RAP1B / Fold change vs veh, LOC101060439 /// RAP1B / RFU, RFX7 / Fold change vs veh, RFX7 / RFU, GTPBP10 / Fold change vs veh, GTPBP10 / RFU, CNEP1R1 / Fold change vs veh, CNEP1R1 / RFU, BIVM-ERCC5 /// ERCC5 / Fold change vs veh, BIVM-ERCC5 /// ERCC5 / RFU, ILF3 / Fold change vs veh, ILF3 / RFU 11762660_at / Fold change /veh 11762660_at / RFU VCAN (11757783_s_at) / Fold change /veh VCAN (11757783_s_at) / RFU DDX43 (11728927_at) / Fold change /veh DDX43 (11728927_at) / RFU KRT8 (11758188_x_at) / Fold change /veh KRT8 (11758188_x_at) / RFU NKD1 (11759106_at) / Fold change /veh NKD1 (11759106_at) / RFU SRD5A1 (11742802_a_at) / Fold change /veh SRD5A1 (11742802_a_at) / RFU TPSAB1 /// TPSB2 (11721975_s_at) / Fold change /veh TPSAB1 /// TPSB2 (11721975_s_at) / RFU GSTM3 (11746129_a_at) / Fold change /veh GSTM3 (11746129_a_at) / RFU IL23R (11737362_x_at) / Fold change /veh IL23R (11737362_x_at) / RFU TMEM51 (11727254_a_at) / Fold change /veh TMEM51 (11727254_a_at) / RFU PIWIL2 (11732686_x_at) / Fold change /veh PIWIL2 (11732686_x_at) / RFU ORM1 (11744905_x_at) / Fold change /veh ORM1 (11744905_x_at) / RFU CCDC152 (11743942_at) / Fold change /veh CCDC152 (11743942_at) / RFU ECM1 (11717891_a_at) / Fold change /veh ECM1 (11717891_a_at) / RFU IL23R (11748794_a_at) / Fold change /veh IL23R (11748794_a_at) / RFU TNFAIP8L3 (11732012_x_at) / Fold change /veh TNFAIP8L3 (11732012_x_at) / RFU MBOAT4 (11741988_at) / Fold change /veh MBOAT4 (11741988_at) / RFU 11764193_at / Fold change /veh 11764193_at / RFU TMEM53 (11763286_at) / Fold change /veh TMEM53 (11763286_at) / RFU MAGEB2 (11727129_at) / Fold change /veh MAGEB2 (11727129_at) / RFU TMEM200A (11744735_a_at) / Fold change /veh TMEM200A (11744735_a_at) / RFU CCDC152 (11751479_a_at) / Fold change /veh CCDC152 (11751479_a_at) / RFU FAM211A (11726209_a_at) / Fold change /veh FAM211A (11726209_a_at) / RFU RGS16 (11746705_a_at) / Fold change /veh RGS16 (11746705_a_at) / RFU VCAN (11755009_s_at) / Fold change /veh VCAN (11755009_s_at) / RFU RHOB (11743442_s_at) / Fold change /veh RHOB (11743442_s_at) / RFU RGS16 (11720943_a_at) / Fold change /veh RGS16 (11720943_a_at) / RFU RGS16 (11720944_at) / Fold change /veh RGS16 (11720944_at) / RFU, VPS4B / Fold change vs veh, VPS4B / RFU, CREB1 / Fold change vs veh, CREB1 / RFU, DNAJC13 / Fold change vs veh, DNAJC13 / RFU, GNAQ / Fold change vs veh, GNAQ / RFU, CDK5R1 / Fold change vs veh, CDK5R1 / RFU, ZRANB3 / Fold change vs veh, ZRANB3 / RFU, CUL4A / Fold change vs veh, CUL4A / RFU, CCNY / Fold change vs veh, CCNY / RFU, UFL1 / Fold change vs veh, UFL1 / RFU, COG3 / Fold change vs veh, COG3 / RFU, DIAPH2 / Fold change vs veh, DIAPH2 / RFU, SKA2 / Fold change vs veh, SKA2 / RFU, AFF3 / Fold change vs veh, AFF3 / RFU, LMF1 / Fold change vs veh, LMF1 / RFU, IPO11 / Fold change vs veh, IPO11 / RFU, DFFB / Fold change vs veh, DFFB / RFU, FOXP1 / Fold change vs veh, FOXP1 / RFU, CARD8 / Fold change vs veh, CARD8 / RFU, STRN3 / Fold change vs veh, STRN3 / RFU, ADK / Fold change vs veh, ADK / RFU, RASSF2 / Fold change vs veh, RASSF2 / RFU, WIPF1 / Fold change vs veh, WIPF1 / RFU, LARP1B / Fold change vs veh, LARP1B / RFU, RASA1 / Fold change vs veh, RASA1 / RFU, RB1 / Fold change vs veh, RB1 / RFU, PPFIA1 / Fold change vs veh, PPFIA1 / RFU, MAT2A / Fold change vs veh, MAT2A / RFU, CCT5 / Fold change vs veh, CCT5 / RFU, WDR92 / Fold change vs veh, WDR92 / RFU, CUX1 / Fold change vs veh, CUX1 / RFU, TTC7A / Fold change vs veh, TTC7A / RFU, TMEM135 / Fold change vs veh, TMEM135 / RFU, DEPTOR / Fold change vs veh, DEPTOR / RFU, CPM / Fold change vs veh, CPM / RFU, DNAJB6 / Fold change vs veh, DNAJB6 / RFU, CACNA2D3 / Fold change vs veh, CACNA2D3 / RFU, DTX4 / Fold change vs veh, DTX4 / RFU, TFCP2 / Fold change vs veh, TFCP2 / RFU, GMCL1 /// GMCL1P1 / Fold change vs veh, GMCL1 /// GMCL1P1 / RFU, AEBP2 / Fold change vs veh, AEBP2 / RFU, SNHG1 /// SNORD22 /// SNORD25 /// SNORD26 /// SNORD27 /// SNORD28 /// SNORD29 /// SNORD31 / Fold change vs veh, SNHG1 /// SNORD22 /// SNORD25 /// SNORD26 /// SNORD27 /// SNORD28 /// SNORD29 /// SNORD31 / Fold change (Aza/veh), C12orf56 (ProbeSet 11735607_a_at) / Fold change (ACY-1035/veh), C12orf56 (ProbeSet 11735607_a_at) / Fold change (Aza/veh), FGFR1OP (ProbeSet 11751329_s_at) / Fold change (ACY-1035/veh), FGFR1OP (ProbeSet 11751329_s_at) / Fold change (Aza/veh), VPS36 (ProbeSet 11739960_a_at) / Fold change (ACY-1035/veh), VPS36 (ProbeSet 11739960_a_at) / RFU SYPL1 (11715823_x_at) / Fold change /veh SYPL1 (11715823_x_at) / RFU IGFBP7 (11715501_s_at) / Fold change /veh IGFBP7 (11715501_s_at) / RFU REEP3 (11722064_at) / Fold change /veh REEP3 (11722064_at) / RFU IGLL1 (11728026_x_at) / Fold change /veh IGLL1 (11728026_x_at): dose or concentration left out as unconfirmed
Settings: MV-4-11 cells, 48 hours

## Nc1ccc(-c2cccs2)cc1NC(=O)c1ccc2c(c1)cc(C1CC1)n2CCN1CCOCC1 [ACY-1035]
  Fold change /veh KRT8 (11758188_x_at): 1.06
